Measurements reported in patent publication US20170158776A1, “TREATMENT OF LUNG CANCER USING A COMBINATION OF AN ANTI-PD-1 ANTIBODY AND ANOTHER ANTI-CANCER AGENT” (Bristol-Myers Squibb Company, priority 2014, published 2017).
Where “and” joins values, the source holds several entries; their conditions need not be identical. Equal values may be shown once.

Key:
[1] = tested on: heavily pretreated patients with advanced NSCLC; test: CA209-003 phase 1: nivolumab monotherapy, efficacy (RECIST 1.0, OS, subgroups, PD-L1); format: in vivo, human
Method: Objective response rate (ORR) was analyzed according to select patient characteristics (age, gender, Eastern Cooperative Oncology Group performance status [ECOG PS], histology, number of prior therapies, prior tyrosine kinase inhibitor [TKI] therapy, epidermal growth factor receptor [EGFR] and Kirsten rat sarcoma viral oncogene homolog [KRAS] mutational status).
PD-L1 expression in archived tumor samples was measured using the Dako immunohistochemistry (IHC) assay. Positive staining with this assay was defined as tumor membrane staining at any intensity, and was analyzed with cut-off values of 1% and 5% expression to assess PD-L1 positivity (Butte M J, et al.). Tumor PD-L1 expression was evaluated for potential association with clinical endpoints.

patients with NSCLC [2] = test: Nivolumab monotherapy arm (Arm F), efficacy; format: in vivo, human
Method: (§1) One arm was developed to test the effect of nivolumab monotherapy on NSCLC. Patients were treated with 3 mg/kg nivolumab (nivo) q2w (once every 2 weeks).

patients with NSCLC [3] = test: Nivolumab monotherapy arm (Arm F), safety; format: in vivo, human; conditions: 3 mg/kg q2w
Method: as §1

[4] = tested on: pts with advanced NSCLC after first-line PT-based chemotherapy; set-up: species or system human; conditions: in vivo
Method: Pts with no progression within 42 days of completing ≧4 cycles first-line PT-based chemotherapy (±BEV) were assigned to either nivolumab (N) 5 mg/kg IV Q3W+BEV 15 mg/kg IV Q3W (non-squamous [non-sq] pts only; n=12) or N 3 mg/kg IV Q2W monotherapy (sq arm [n===8] or non-sq arm [n=13]) until progression/unacceptable toxicity (treatment beyond progression allowed based on protocol-defined criteria). ORR was evaluated using RECIST 1.1.

## nivolumab
[1]; 1 mg/kg
  Estimated Median DOR: 63.9 wks
  Median OS: 9.2 mo
  Median PFS: 1.8 mo
  ORR: 3.0%
  OS Rate 1-year: 32%
  OS Rate 2-year: 12%
[1]; 3 mg/kg
  Estimated Median DOR: 74.0 wks
  Median OS: 14.9 mo
  Median PFS: 1.9 mo
  ORR: 24% and 24.3%
  OS Rate 1-year: 56%
  OS Rate 2-year: 45%
[1]; 10 mg/kg
  Estimated Median DOR: 83.1 wks
  Median OS: 9.2 mo
  Median PFS: 3.7 mo
  ORR: 20.3%
  OS Rate 1-year: 40%
  OS Rate 2-year: 19%
[1]; 5 of 6
  of these, responses ongoing at the time of reporting: 83%
[1]; 6/16
  responders who discontinued for reasons other than disease progression and responded for >30 weeks after the last dose: 38%
[1]; 10/22
  Responses ongoing at the time of analysis: 45%
[1]; 11/22
  patients with ORs with response at first assessment (8 weeks): 50%
[1]; All doses
  Estimated Median DOR: 74 wks and 74.0 wks
  Median OS: 9.9 mo
  Median PFS: 2.3 mo
  ORR: 17%
  OS Rate 1-year: 42%
  OS Rate 2-year: 24%
[1]; Non-squamous, 1 mg/kg
  Median OS (95% CI): 9.9 (5.3, 22.5) mo
  ORR: 5.6 (1/18) % (n/N)
  OS Rate 1-year (95% CI): 36 (15, 58)
  OS Rate 2-year (95% CI): 15 (3, 36)
[1]; Non-squamous, 3 mg/kg
  Median OS (95% CI): 18.2 (5.2, NE) mo
  ORR: 26.3 (5/19) % (n/N)
  OS Rate 1-year (95% CI): 62 (37, 80)
  OS Rate 2-year (95% CI): 48 (22, 69)
[1]; Non-squamous, 10 mg/kg
  Median OS (95% CI): 7.4 (4.5, 12.4) mo
  ORR: 18.9 (7/37) % (n/N)
  OS Rate 1-year (95% CI): 36 (21, 52)
  OS Rate 2-year (95% CI): 15 (6, 29)
[1]; Non-squamous, All doses
  Median OS (95% CI): 10.1 mo and 10.1 (5.7, 13.7) mo
  ORR: 17.6 (13/74) % (n/N)
  OS Rate 1-year (95% CI): 43 (32, 54)
  OS Rate 2-year (95% CI): 23 (13, 34)
[1]; PD-L1+ (5% cut-off), Non-squamous
  ORR: 17 (3/18) % (n/N)
[1]; PD-L1+ (5% cut-off), Squamous
  ORR: 13 (2/15) % (n/N)
[1]; PD-L1+ tumors
  Median OS: 7.8 months
  Median PFS: 3.6 months
[1]; PD-L1 cut-off 1%, Negative
  ORR: 17 (5/30) % (n/N)
[1]; PD-L1 cut-off 1%, Positive
  ORR: 13 (5/38) % (n/N)
[1]; PD-L1 cut-off 5%, Negative, all patients
  ORR: 14 (5/35) % (n/N)
[1]; PD-L1 cut-off 5%, Positive, all patients
  ORR: 15 (5/33) % (n/N)
[1]; PD-L1− (5% cut-off), Non-squamous
  ORR: 10 (2/21) % (n/N)
[1]; PD-L1− (5% cut-off), Squamous
  ORR: 21 (3/14) % (n/N)
[1]; PD-L1− tumors
  Median OS: 10.5 months
  Median PFS: 1.8 months
[1]; Squamous, 1 mg/kg
  Median OS (95% CI): 8.0 (2.4, 13.3) mo
  ORR: 0 (0/15) % (n/N)
  OS Rate 1-year (95% CI): 27 (7, 51)
  OS Rate 2-year (95% CI): 9 (1, 32)
[1]; Squamous, 3 mg/kg
  Median OS (95% CI): 9.5 (5.3, NE) mo
  ORR: 22.2 (4/18) % (n/N)
  OS Rate 1-year (95% CI): 49 (23, 71)
  OS Rate 2-year (95% CI): 41 (17, 64)
[1]; Squamous, 10 mg/kg
  Median OS (95% CI): 10.5 (4.9, 16.7) mo
  ORR: 23.8 (5/21) % (n/N)
  OS Rate 1-year (95% CI): 43 (22, 62)
  OS Rate 2-year (95% CI): 22 (7, 42)
[1]; Squamous, All doses
  Median OS (95% CI): 9.2 mo and 9.2 (7.3, 12.5) mo
  ORR: 16.7 (9/54) % (n/N)
  OS Rate 1-year (95% CI): 40 (27, 54)
  OS Rate 2-year (95% CI): 24 (13, 37)
[1]; across doses
  patients maintaining SD for ≧48 weeks: 5%
Patients with NSCLC [2]; Arm F (n = 52)
  Best Overall Response: CR: 4 (8%)
  Best Overall Response: PD: 20 (38%)
  Best Overall Response: PR: 8 (15%)
  Best Overall Response: SD: 14 (27%)
  Best Overall Response: Unable to determine: 6 (12%)
  Best Overall Response: Unconfirmed PR: 0
  Confirmed DCR: 26 (50%)
  Confirmed ORR: 12 (23%)
  Overall DCR: 26 (50%)
  Overall ORR: 12 (23%)
Patients with NSCLC [2]; Arm F N = 52
  >80% target lesion reduction at 18 wks: 3 (6%)
  Median OS: 22.6 mos
  Median PFS: 15.6 wks
  Number of responders: 12 (23%)
  OS rate at 12 months: 74%
  Ongoing responder: 8 (67%)
  PFS rate at 24 weeks: 41%
Patients with NSCLC [2]; Non-squamous (n = 39)
  Best Overall Response: CR: 3 (8%)
  Best Overall Response: PD: 7 (18%)
  Best Overall Response: PR: 7 (18%)
  Best Overall Response: SD: 0
  Best Overall Response: Unable to determine: 6 (15%)
  Best Overall Response: Unconfirmed PR: 0
  Confirmed DCR: 18 (46%)
  Confirmed ORR: 10 (26%)
  Overall DCR: 18 (46%)
  Overall ORR: 10 (26%)
Patients with NSCLC [2]; Squamous (n = 13)
  Best Overall Response: CR: 1 (8%)
  Best Overall Response: PD: 5 (38%)
  Best Overall Response: PR: 1 (8%)
  Best Overall Response: SD: 6 (46%)
  Best Overall Response: Unable to determine: 0
  Best Overall Response: Unconfirmed PR: 0
  Confirmed DCR: 8 (62%)
  Confirmed ORR: 2 (15%)
  Overall DCR: 8 (62%)
  Overall ORR: 2 (15%)
Patients with NSCLC [3]; n = 52
  Arthralgia, All Gr: 5 (9.6) n (%)
  Arthralgia, GR ¾: 0 n (%)
  Constipation, All Gr: 3 (5.8) n (%)
  Constipation, GR ¾: 0 n (%)
  Diarrhea, All Gr: 6 (11.5) n (%)
  Diarrhea, GR ¾: 1 (1.9) n (%)
  Fatigue, All Gr: 15 (28.8) n (%)
  Fatigue, GR ¾: 0 n (%)
  Hypothyriodism, All Gr: 3 (5.8) n (%)
  Hypothyriodism, GR ¾: 0 n (%)
  Nausea, All Gr: 7 (13.5) n (%)
  Nausea, GR ¾: 0 n (%)
  Pneumonitis, All Gr: 3 (5.8) n (%)
  Pneumonitis, GR ¾: 1 (1.9) n (%)
  Pruritus, All Gr: 6 (11.5) n (%)
  Pruritus, GR ¾: 0 n (%)
  Rash, All Gr: 10 (19.2) n (%)
  Rash, GR ¾: 2 (3.8) n (%)
  Total patients with an event, All Gr: 37 (71.2) n (%)
  Total patients with an event, GR ¾: 10 (19.2) n (%)
  Vomiting, All Gr: 3 (5.8) n (%)
  Vomiting, GR ¾: 0 n (%)
Patients with NSCLC [3]; 52 treated
  Discontinued subjects: Toxicity: 6 (12%)
[4]
  Any-grade treatment-related adverse events: 62%
  grade 3 pleural effusion: 1 n
  grade 3 pneumonitis: 2 n
  pts discontinued due to treatment-related AEs: Four
  treatment-related grade 4 AEs: No treatment-related grade 4 AEs were reported
